Usually ED50 stands for the dose at which the effect has come halfway, by size or by number of responders.

The species entered for test [1] is Felis catus. The test is described as follows: Compound tested for contractility in isolated cat papillary muscle at 10 e-4 M. In kind it is functional.
The species entered for test [2] is Felis catus. Description: Compound tested for contractility in isolated cat papillary muscle at 10 e-5 M. In kind it is functional.
For test [3], the species on record is Felis catus. Description: Response ratio = (percent increase to drug)/(percent increase to 10 E-4 M isoproterenol). In kind it is functional.
For test [4], the species on record is Felis catus. Description: Response ratio = (percent increase to drug)/(percent increase to 10 E-5 M isoproterenol). In kind it is functional.
The species entered for test [5] is Felis catus. The test is described as follows: Response ratio = (percent increase to drug)/(percent increase to 10 E-6 M isoproterenol). In kind it is functional.
For test [6], the species on record is Felis catus. The test is described as follows: Compound tested for contractility in isolated cat papillary muscle at 10 e-6 M. In kind it is functional.
Test [7] concerns Canis familiaris. Description: Compound tested for contractility in anesthetized dog when administered intravenously. In kind it is functional. As to conditions: Canis lupus familiaris, iv.
The test system of test [8] is Canis familiaris. Description: Percent change in heart rate in anesthetized dog. In kind it is functional, Canis lupus familiaris.
For test [9], the system named is Canis familiaris. Description: Percent change in mean arterial blood pressure in anesthetized dog. In kind it is functional, Canis lupus familiaris.
Test [10] deals with Canis familiaris. Description: maximum percent increase in contractility in anesthetized dog when administered 4 mg/Kg intravenously. In kind it is functional, Canis lupus familiaris.
For test [11], the system named is Canis familiaris. Description: Compound tested for contractility in anesthetized dog when administered intravenously; ED50 not obtained. In kind it is functional, organism-based. As to conditions: Canis lupus familiaris.
In test [12] the test system is Canis familiaris. The test is described as follows: Percent change in heart rate in anesthetized dog; ED50 not obtained. In kind it is functional, organism-based. As to conditions: Canis lupus familiaris.
Test [13] relates to Canis familiaris. The test is described as follows: Percent change in mean arterial blood pressure in anesthetized dog; ED50 not obtained. As to conditions: Canis lupus familiaris. In kind it is functional, organism-based.

SMILES strings stand for the structures. Bounds are passed on as bounds.

`COc1cc(Cl)ccc1-c1nc2cc[nH]cc-2n1`: the Control in the test filed under Felis catus [1] is 165%; in the test filed under Felis catus [2], 162%; in the test listed under Felis catus [6], 123%. The Response ratio is reported as 0.9 in the test listed under Felis catus [3], 0.86 in the test listed under Felis catus [4] and 0.32 in the test listed under Felis catus [5]. The same compound displayed a 50% effective dose (ED50) with Canis familiaris [7] of 0.23 mg/kg. The Change with Canis familiaris [8] is listed as 14%; with Canis familiaris [9] it was -21%.
Consider `COc1cc([N+](=O)[O-])ccc1-c1nc2cc[nH]cc-2n1`, for which the results for the Control in the test filed under Felis catus [1], in the test listed under Felis catus [2] and in the test listed under Felis catus [6] were 144%, 142% and 127%, respectively. In addition, the Response ratio in the test filed under Felis catus [3] is given as 0.61; in the test listed under Felis catus [4] it was 0.58; in the test listed under Felis catus [5] it was 0.38. The ED50 in the test with Canis familiaris [7] is 0.015 mg/kg. Besides, the Change in the test with Canis familiaris [8] was 5%; in the test with Canis familiaris [9], -23%.
For `CCOc1cc([S+](C)[O-])ccc1-c1nc2cc[nH]cc-2n1` (centres undefined), the results for the Control in the test listed under Felis catus [1], in the test filed under Felis catus [2] and in the test listed under Felis catus [6] were 262%, 183% and 113%, respectively. The values for the Response ratio in the test filed under Felis catus [3], in the test listed under Felis catus [4] and in the test listed under Felis catus [5] were 2.25, 1.15 and 0.18, respectively. The ED50 with Canis familiaris [7] was 0.1 mg/kg. Also, the Change in the test with Canis familiaris [8] is listed as 14%; in the test on Canis familiaris [9] it was -4%.
With `CN(C)c1ccc(-c2nc3cc[nH]cc-3n2)cc1`, the results for the Control in the test listed under Felis catus [1] and in the test filed under Felis catus [2] were 175% and 94%, respectively. Moreover, the Response ratio is on record as 1.04 in the test listed under Felis catus [3] and -0.08 in the test listed under Felis catus [4]. The Increase in the test on Canis familiaris [10] is recorded as below 50%.
With `COc1cc(Oc2ccccc2)ccc1-c1nc2cc[nH]cc-2n1`, the Control was found to be 155% in the test listed under Felis catus [1] and 122% in the test listed under Felis catus [2]. Besides, the Response ratio is 0.76 in the test filed under Felis catus [3] and 0.3 in the test filed under Felis catus [4]. In the test with Canis familiaris [10], the Increase is given as below 50%.
For the compound `COc1ccc(-c2nc3cccnc3[nH]2)cc1`, the Control in the test listed under Felis catus [1] is listed as 173%; in the test filed under Felis catus [2] it was 104%. Further, the Response ratio in the test filed under Felis catus [3] was determined as 1.01; in the test listed under Felis catus [4], 0.06. In addition, the median effective dose (ED50) entry in the test on Canis familiaris [11], in the test on Canis familiaris [12] and in the test on Canis familiaris [13] was “ED50 not obtained” in each case.

For the origin of these results see ChEMBL document CHEMBL1123114, “Structure-activity relationships of arylimidazopyridine cardiotonics: discovery and inotropic activity of 2-[2-methoxy-4-(methylsulfinyl)phenyl]-1H-imidazo[4,5-c]pyridine” (1985).
